Results as given in PubChem BioAssay (NCI).
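These data come from cells grown in 96-well plates and exposed to compound for 48 hours at five concentrations. GI50: concentration for 50% inhibition of growth. Definition used: TGI = concentration required for complete inhibition of growth.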

What was measured:
Experiment in all cases: inhibition of tumour cell growth, NCI panel, 48 h
[1] = system: SNB-19 CNS
[2] = system: RPMI-8226 leukemia
[3] = system: UACC-62 melanoma
[4] = system: HCC-2998 colon
[5] = system: LOX IMVI melanoma
[6] = system: UACC-257 melanoma
[7] = system: OVCAR-8 ovarian
[8] = system: CCRF-CEM leukemia
[9] = system: K-562 leukemia
[10] = system: NCI/ADR-RES ovarian
[11] = system: SF-295 CNS
[12] = system: MCF7 breast
[13] = system: UO-31 renal
[14] = system: NCI-H460 lung
[15] = system: BT-549 breast
[16] = system: KM12 colon
[17] = system: SW-620 colon
[18] = system: MDA-MB-231 breast
[19] = system: COLO 205 colon
[20] = system: IGROV1 ovarian
[21] = system: MDA-MB-435
[22] = system: M14 melanoma
[23] = system: SK-MEL-2 melanoma
[24] = system: ACHN renal
[25] = system: SN12C renal
[26] = system: 786-0 renal
[27] = system: T-47D breast
[28] = system: RXF 393 renal
[29] = system: SF-268 CNS
[30] = system: HCT-116 colon
[31] = system: HS 578T breast
[32] = system: TK-10 renal
[33] = system: MOLT-4 leukemia
[34] = system: EKVX NSCLC
[35] = system: SK-MEL-5 melanoma
[36] = system: PC-3 prostate
[37] = system: A498 renal
[38] = system: NCI-H23 lung
[39] = system: NCI-H522 lung
[40] = system: NCI-H226 lung
[41] = system: U251 CNS
[42] = system: HCT-15 colon
[43] = system: SR leukemia
[44] = system: CAKI-1 renal
[45] = system: SF-539 CNS
[46] = system: OVCAR-3 ovarian
[47] = system: OVCAR-5 ovarian
[48] = system: A549 NSCLC
[49] = system: SK-OV-3 ovarian

## COc1cc2c(/C=N\N=C(N)N)c(Cl)[nH]c2cc1C
[1]
  GI50: 12.7 µM
  TGI: 29.2 µM
[2]
  GI50: 10.5 µM
  TGI: 25 µM
[3]
  GI50: 12 µM
  TGI: 24.6 µM
[4]
  GI50: 2500 nM
  TGI: 5.67 µM
[5]
  GI50: 11.4 µM
  TGI: 25.3 µM
[6]
  GI50: 16.5 µM
  TGI: 32.5 µM
[7]
  GI50: 15.4 µM
  TGI: 38.6 µM
[8]
  GI50: 3.89 µM
  TGI: 17.5 µM
[9]
  GI50: 4.36 µM
  TGI: 19.7 µM
[10]
  GI50: 23.3 µM
  TGI: 50.5 µM
[11]
  GI50: 8.28 µM
  TGI: 23.1 µM
[12]
  GI50: 6.47 µM
  TGI: 27.5 µM
[13]
  GI50: 27.5 µM
  TGI: 84.6 µM
[14]
  GI50: 15 µM
  TGI: > 100 µM
[15]
  GI50: 13.2 µM
  TGI: 27.8 µM
[16]
  GI50: 7.17 µM
  TGI: 22.6 µM
[17]
  GI50: 14.7 µM
  TGI: 30.7 µM
[18]
  GI50: 6.4 µM
  TGI: 20.8 µM
[19]
  GI50: 2670 nM
  TGI: 8.82 µM
[20]
  GI50: 17.5 µM
  TGI: 49.9 µM
[21]
  GI50: 12.2 µM
  TGI: 26.2 µM
[22]
  GI50: 12.5 µM
  TGI: 25.2 µM
[23]
  GI50: 34.5 µM
  TGI: > 100 µM
[24]
  GI50: 11.1 µM
  TGI: 23.6 µM
[25]
  GI50: 1650 nM
  TGI: 11.5 µM
[26]
  GI50: 14.4 µM
  TGI: 28.3 µM
[27]
  GI50: 2960 nM
  TGI: 9.12 µM
[28]
  GI50: 14.8 µM
  TGI: 30.1 µM
[29]
  GI50: 15.2 µM
  TGI: 40.7 µM
[30]
  GI50: 10.2 µM
  TGI: 21.9 µM
[31]
  GI50: 10.8 µM
  TGI: 32.6 µM
[32]
  GI50: 15.7 µM
  TGI: 29.5 µM
[33]
  GI50: 2820 nM
  TGI: 7.41 µM
[34]
  GI50: 16.9 µM
  TGI: 34.5 µM
[35]
  GI50: 5.08 µM
  TGI: 19 µM
[36]
  GI50: 6.54 µM
  TGI: 19.5 µM
[37]
  GI50: 19.9 µM
  TGI: 35 µM
[38]
  GI50: 14.1 µM
  TGI: 28 µM
[39]
  GI50: 21.4 µM
  TGI: > 100 µM
[40]
  GI50: 10.5 µM
  TGI: 26.3 µM
[41]
  GI50: 4.62 µM
  TGI: 17.7 µM
[42]
  GI50: 18 µM
  TGI: 34.1 µM
[43]
  GI50: 3.34 µM
  TGI: 8.22 µM
[44]
  GI50: 17 µM
  TGI: 32.7 µM
[45]
  GI50: 10.2 µM
  TGI: 25 µM
[46]
  GI50: 5.49 µM
  TGI: 20.6 µM
[47]
  GI50: 15.2 µM
  TGI: 29 µM
[48]
  GI50: 18.6 µM
  TGI: 37.3 µM
[49]
  GI50: 9.03 µM
  TGI: 24.1 µM
